Values quoted from earlier work, collected in patent publication US9446009B2, “Methods for treating conditions of the nail unit” (Hallux, Inc., priority 2004, dated 2016).
In brackets after ≈: the same amount, converted by molar mass.

Experiments:
Conditions in all cases: in vitro
[1] = system: Trichophyton verrucosum
[2] = system: Trichophyton tonsurans
[3] = system: Trichophyton rubrum
[4] = system: Trichophyton mentagrophytes

SMILES: c1ccc(-c2ccc(C(c3ccccc3)n3ccnc3)cc2)cc1 (centres unmarked) [Bifonazole]
- MIC Ranges [1]: 8 µg/mL (≈ 25.8 µM)
- MIC Ranges [2]: ≦0.016-0.5 mcg/ml
- MIC Ranges [3]: <0.016 to 1 µg/mL
- MIC Ranges [4]: 0.125 to 0.25 µg/mL

SMILES: OC(Cn1cncn1)(Cn1cncn1)c1ccc(F)cc1F [Fluconazole]
- MIC Ranges [1]: 16 µg/mL (≈ 52.2 µM)
- MIC Ranges [2]: 0.25 to 8 µg/mL
- MIC Ranges [4]: 16 to 32 µg/mL

SMILES: CN(C/C=C/C#CC(C)(C)C)Cc1cccc2ccccc12 [Terbinafine]
- MIC Ranges [1]: 1 µg/mL (≈ 3.43 µM)
- MIC Ranges [2]: ≦0.001-0.008 mcg/ml
- MIC Ranges [3]: ≦0.0001-1 ^ mcg/ml
- MIC Ranges [4]: ≦S0.001 mcg/ml

SMILES: Clc1ccc(COC(Cn2ccnc2)c2ccc(Cl)cc2Cl)c(Cl)c1 (centres unmarked) [Miconazole]
- MIC Ranges [1]: 4 µg/mL (≈ 9.61 µM)
- MIC Ranges [2]: 0.016 to 0.25 µg/mL
- MIC Ranges [3]: 0.008 to 4 µg/mL
- MIC Ranges [4]: 1 µg/mL (≈ 2.4 µM)

SMILES: Cc1cc(C2CCCCC2)n(O)c(=O)c1 [Ciclopiroxolamine]
- MIC Ranges [1]: 4 µg/mL (≈ 19.3 µM)
- MIC Ranges [2]: 0.125 to 1 µg/mL
- MIC Ranges [3]: <0.03 to 8 µg/mL
- MIC Ranges [4]: 0.5 to 1 µg/mL

SMILES: COC1=CC(=O)C[C@@H](C)[C@]12Oc1c(Cl)c(OC)cc(OC)c1C2=O [Griseofulvin]
- MIC Ranges [1]: 1 µg/mL (≈ 2.83 µM)
- MIC Ranges [2]: 0.5 to 1 µg/mL
- MIC Ranges [3]: 0.016 to 8 µg/mL
- MIC Ranges [4]: 0.016 to 0.125 µg/mL

SMILES: CC(=O)N1CCN(c2ccc(OCC3COC(Cn4ccnc4)(c4ccc(Cl)cc4Cl)O3)cc2)CC1 (centres unmarked) [Ketoconazole]
- MIC Ranges [1]: 4 µg/mL (≈ 7.53 µM)
- MIC Ranges [2]: 0.016 to 0.125 µg/mL
- MIC Ranges [4]: 0.008 to 4 µg/mL
